In PubChem BioAssay (NCI) one finds GI50 and TGI data, which are given here for nine compounds.

Holding throughout (assay): inhibition of tumour cell growth, NCI panel, 48 h
Assay [1] concerns COLO 205 colon.
Assay [2] deals with HT29 colon.
For assay [3], the system named is K-562 leukemia.
The test system of assay [4] is NCI-H23 lung.
In assay [5] the test system is RPMI-8226 leukemia.
The subject of assay [6] is SNB-19 CNS.
For assay [7], the system named is SNB-75 CNS.
Assay [8] has as its system U251 CNS.

Structures are written as SMILES. Several values for one entry are separate records, joined by “and”; a condition that tells them apart may be missing. Equal values may be shown once.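 Values below derive from 48-hour exposures of cells grown in 96-well plates, with endpoints linearly interpolated between the two concentrations bracketing the appropriate inhibition level. GI50: concentration for 50% inhibition of growth. Definition used: TGI = concentration required for complete inhibition of growth.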 Bounds are passed on as bounds.

Consider `CCN1C(=O)N(CC)C2C1NN=c1s/c(=C\c3ccc(OC)cc3)c(=O)n12` (centres undefined), for which the GI50 in assay [1] was 192 nM; in assay [2], 238 nM; in assay [3], 53 nM; in assay [4] it was 494 nM; in assay [5], 353 nM; in assay [6] it was 471 nM. Further, the GI50 was 44.2 nM in assay [7] and 244 nM in assay [8]. The TGI is 616 nM in assay [1]; more than 82400 nM in assay [2]; more than 100000 nM in assay [3]; more than 100000 nM in assay [4]; more than 100000 nM in assay [5]; more than 100000 nM in assay [6]. The TGI in assay [7] is 2840 nM; in assay [8], more than 100000 nM.

For the compound `CCCc1n(Cc2ccc3ccccc3n2)cc[n+]1Cc1ccc2ccccc2n1`, the GI50 is 633 nM in assay [1]; 1610 nM in assay [2]; 720 nM in assay [3]; 819 nM in assay [4]; 362 nM in assay [5]; 1130 nM in assay [6]. For the same compound, the results for the GI50 in assay [7] and in assay [8] were 1460 nM and 1510 nM, respectively. In addition, the TGI in assay [1] came to 2210 nM; in assay [2], 11400 nM; in assay [3], 15900 nM; in assay [4], 14200 nM; in assay [5], 7410 nM; in assay [6], 13200 nM. The TGI worked out at 8700 nM in assay [7] and 12300 nM in assay [8].

For `Cc1cc(C#Cc2ccccc2)ccc1-n1c(/C=C/c2cc(O)ccc2O)nc2ccccc2c1=O`, the GI50 in assay [1] was 1480 nM; in assay [2], 1970 nM; in assay [3], 1420 nM; in assay [4] it was 1480 nM; in assay [5], 1260 nM; in assay [6], 1620 nM. The GI50 was 1300 nM in assay [7] and 1450 nM in assay [8]. For the same compound, the TGI in assay [1] is 2800 nM; in assay [2], 4190 nM; in assay [3] it was 3820 nM; in assay [4], 3120 nM; in assay [5], 6080 nM; in assay [6], 3180 nM. Besides, the results for the TGI in assay [7] and in assay [8] were 2780 nM and 2770 nM, respectively.

Consider `COc1cc(-c2nn(-c3cccc(NC(=O)CCN4CCN(C)CC4)c3)cc2-c2ccncc2)ccc1Cl`, for which the GI50 in assay [1] is 1090 nM; in assay [2] it was 371 nM; in assay [3], 730 nM; in assay [4], 2380 nM; in assay [5] it was 1770 nM; in assay [6], 2010 nM. In addition, the GI50 was 591 nM in assay [7] and 1290 nM in assay [8]. For the same compound, the TGI in assay [1] came to 2470 nM; in assay [2], 1640 nM; in assay [3], 2530 nM; in assay [4] it was 10400 nM; in assay [5], 4560 nM; in assay [6], 8890 nM. In addition, the TGI was 2920 nM in assay [7] and 3400 nM in assay [8].

Take `COc1ccc2nc3cc(Cl)ccc3c(Nc3cc(C(C)C)c(O)cc3C)c2c1`: the GI50 is 1810 nM in assay [1]; 2310 nM in assay [2]; 2020 nM in assay [3]; 2200 nM in assay [4]; 663 nM in assay [5]; 2970 nM in assay [6]. The GI50 in assay [7] is 2160 nM; in assay [8] it was 1790 nM. Besides, the TGI was 3640 nM in assay [1]; 6070 nM in assay [2]; more than 100000 nM in assay [3]; 6020 nM in assay [4]; 2680 nM in assay [5]; 12700 nM in assay [6]. Further, the TGI in assay [7] was 7610 nM; in assay [8], 3530 nM.

For the compound `CNc1ncc2cc(-c3cc(NC(=O)NCCC(C)(C)C)c(F)cc3C)c(C)nc2n1`, the GI50 was < 13.3 nM and 13.5 nM in assay [1]; 17.7 nM and 19.4 nM in assay [2]; 227 nM and 330 nM in assay [3]; 147 nM and 186 nM in assay [4]; 907 nM and 685 nM in assay [5]; 2230 nM and 1550 nM in assay [6]. The GI50 is 949 nM and 1040 nM in assay [7]; 572 nM and 474 nM in assay [8]. Further, the TGI in assay [1] was 1380 nM and > 4300 nM; in assay [2], more than 41500 nM; in assay [3] it was more than 100000 nM; in assay [4] it was more than 42100 nM; in assay [5], more than 52600 nM; in assay [6], more than 100000 nM. Besides, the TGI in assay [7] is 7360 nM and 7600 nM; in assay [8], 31600 nM and > 10000 nM.

For the compound `C[C@H](c1ccccc1)N(CCC(=O)O)C(=O)CCN(C(=O)CCN(C(=O)CCN[C@H](C)c1ccccc1)[C@H](C)c1ccccc1)[C@H](C)c1ccccc1`, the GI50 in assay [1] was more than 100000 nM; in assay [2], more than 100000 nM; in assay [3] it was more than 100000 nM; in assay [4], more than 100000 nM; in assay [5], 58400 nM; in assay [6], more than 100000 nM. Also, the GI50 is 66400 nM in assay [7] and more than 100000 nM in assay [8]. The TGI in assay [1], in assay [2], in assay [3], in assay [4], in assay [5] and in assay [6] was more than 100000 nM each time. For the same compound, the TGI in assay [7] and in assay [8] was more than 100000 nM each time.

For the compound `CC/C(=N/N=C(N)N)c1ccc(NC(=O)Nc2ccc(/C(CC)=N/N=C(N)N)cc2)cc1`, the GI50 in assay [1] is 3250 nM; in assay [2], 7120 nM; in assay [3] it was 1060 nM; in assay [4], 11500 nM; in assay [5] it was 1620 nM; in assay [6] it was 8550 nM. Also, the GI50 is 13600 nM in assay [7] and 2640 nM in assay [8]. The TGI in assay [1] was found to be 21200 nM; in assay [2], 28100 nM; in assay [3], 7250 nM; in assay [4], 50800 nM; in assay [5], 8850 nM; in assay [6], 85000 nM. In addition, the figures for the TGI in assay [7] and in assay [8] were 42100 nM and 12200 nM, respectively.

Turning to `COc1ccc(-c2nc3sccn3c2-c2ccnc(NCCCNS(=O)(=O)c3ccc(F)cc3)n2)cc1`, the GI50 in assay [1] is 1890 nM; in assay [2] it was 2160 nM; in assay [3], 1430 nM; in assay [4], 2110 nM; in assay [5], 1600 nM; in assay [6], 4430 nM. Besides, the GI50 was 2250 nM in assay [7] and 3700 nM in assay [8]. The TGI in assay [1] is 8150 nM; in assay [2], more than 100000 nM; in assay [3], more than 100000 nM; in assay [4], 5500 nM; in assay [5], 5370 nM; in assay [6], more than 100000 nM. The TGI was 6040 nM in assay [7] and more than 100000 nM in assay [8].
